# Numbered stars: 1 amine (or outer) side, 2 acyl side, 3 side chain; on linkers, the order of the positions; unused ones are H or OH. Bridge positions count the residues as written; N and C are the ends. Square brackets hold non-standard residues; d marks the D form. Peptide text beside a SMILES is read from it. Trp(βS-Me,7-OMe) = COc1cccc2c([C@H](C)[C@H](N)C(=O)O)c[nH]c12; Trp(7-Cl) = N[C@@H](Cc1c[nH]c2c(Cl)cccc12)C(=O)O; X8 = O=C([C@@H]1C[C@@H](O)[C@H](N[*:1])C1)[*:2]; Phe(4-COOH) = N[C@@H](Cc1ccc(C(=O)O)cc1)C(=O)O; Trp(7-aza) = N[C@@H](Cc1c[nH]c2ncccc12)C(=O)O; X38 = CC(C)(CO)CN(CC(=O)[*:2])[*:1]; Pip(4-aza) = O=C(O)[C@@H]1CNCCN1; 4Pal = N[C@@H](Cc1ccncc1)C(=O)O; NMeE = CN[C@@H](CCC(=O)O)C(=O)O; Pip = O=C(O)[C@@H]1CCCCN1; αMeS = C[C@](N)(CO)C(=O)O; Nle = CCCC[C@H](N)C(=O)O; Nme = COCCNCC(=O)O; Sar = CNCC(=O)O
# Key:
# human TNFR2 ECD protein = molecular target: T1, human TNFR2 ECD protein (Homo sapiens, UniProt P20333); assay: SPR off-target binding (selectivity) to human TNFR2 ECD
# T1 construct: HRV 3C protease cleavage site (C); 6His (C, cleaved yes); made in house; host or cells: Sf21 insect cells (baculovirus), secreted
# T1 sequence (P20333 23-257): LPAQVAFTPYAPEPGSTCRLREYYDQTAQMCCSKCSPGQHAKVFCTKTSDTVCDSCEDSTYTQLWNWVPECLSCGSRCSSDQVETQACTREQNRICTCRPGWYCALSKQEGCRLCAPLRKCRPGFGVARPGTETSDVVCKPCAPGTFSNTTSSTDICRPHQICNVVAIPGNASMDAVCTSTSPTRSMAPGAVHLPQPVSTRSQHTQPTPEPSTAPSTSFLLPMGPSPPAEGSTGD
# Description: B. Procedure for Binding Affinity and Selectivity measured by SPR
# Affinity and selectivity for hTNFR1 and TNFR2 was determined using SPR. Human TNFR1 or TNFR2 genes (extracellular domain only) were synthesized with a C-terminal Avi-tag, HRV 3C protease cleavage site followed by a 6His-tag for affinity purification. The final gene product was cloned into pBAC™-1 vector (Millipore Sigma) for expression testing in insect cells. Constructs were transfected into Sf21 cells for baculovirus generation followed by protein expression analysis in Sf21 and Tni cell lines. Large scale expression in Sf21 cells was performed using baculovirus infected insect cells (BIICs) infected at a MOI=2.0 grown for 72 h. Target proteins secreted into the media were harvested via centrifugation and concentrated using diafiltration. TNFR was purified by immobilized metal ion affinity chromatography (IMAC) using a Ni-Sepharose HisTrap™ column (Cytiva™). Isolated TNFR had His tag removed using HRV 3C protease followed by additional purification using Ni-NTA chromatography. Biotinylation was performed on Ni-NTA flow-through fractions concentrated to 45 μM and treated with BirA ligase (1:100, μg/μg ratio) in 50 mM Tris pH 7.5, 150 mM NaCl, 50 μM biotin, 10 mM magnesium acetate, 10 mM ATP at 4° C. for 20 h. Final purification of biotin-TNFR and buffer exchange into 20 mM HEPES pH 7.5, 150 mM NaCl was performed using a HiLoad® Superdex® 200 26/60 column (Cytiva™). Highly purified protein was aliquoted and stored at −80° C.
# The SPR assay uses a Cytiva™ 8K or 8K+ biosensor instrument to measure the kinetics of peptide analytes binding to captured human TNFR1 extracellular domain (ECD) protein; peptide analytes are also evaluated for any off-target binding to human TNFR2 ECD protein in parallel. Recombinant human TNFR1 ECD and human TNFR2 ECD proteins, biotinylated via engineered C-terminal avi-tags, are immobilized to a regenerable streptavidin biosensor chip surface (Cytiva™ Biotin CAPture kit, Series S; cat. #28920234). Peptide analytes binding to immobilized human TNFR1 ECD protein and their subsequent dissociation are conducted in a buffer of 10 mM HEPES pH 7.4, 150 mM NaCl, 3 mM EDTA, 0.05% P20,2% DMSO under laminar flow conditions and measured in response units (RU), which are directly proportional to the accumulated mass on the surface of the biosensor chip; the biosensor chip surface is regenerated via Cytiva™ proprietary methods between the evaluation of each peptide analyte. […] The SPR assay determines the association and dissociation rate constants, kon and koff, for each peptide analyte and, from these values, calculates the binding affinity, […] reported in Table 2.
# [1] = molecular target: T2, TNFα-induced NF-κB signal transduction pathway (TNFR1 signaling) in THP-1 cells (Homo sapiens, UniProt P19438); assay: THP-1 Lucia NF-κB reporter cell assay, inhibition of TNFα-induced NF-κB signaling; assay type: cell-based; settings: THP-1 NF-κB Lucia reporter cells, 10 ng/mL TNFα, 16-18 h, secreted luciferase; read-out: THP-1 IC50
# T2 sequence (P19438 30-455): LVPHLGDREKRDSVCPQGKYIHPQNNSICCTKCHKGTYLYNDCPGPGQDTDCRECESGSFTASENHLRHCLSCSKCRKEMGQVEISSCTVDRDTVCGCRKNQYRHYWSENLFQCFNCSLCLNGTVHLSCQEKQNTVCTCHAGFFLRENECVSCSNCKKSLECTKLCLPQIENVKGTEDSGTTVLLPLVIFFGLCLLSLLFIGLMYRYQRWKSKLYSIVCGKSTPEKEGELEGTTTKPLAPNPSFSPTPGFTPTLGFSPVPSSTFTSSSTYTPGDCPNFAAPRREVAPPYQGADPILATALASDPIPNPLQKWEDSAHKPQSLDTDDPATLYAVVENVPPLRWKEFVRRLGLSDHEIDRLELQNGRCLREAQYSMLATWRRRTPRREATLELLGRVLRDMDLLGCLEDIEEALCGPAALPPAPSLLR
# Summary of the method: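 Inhibition of TNFR1-driven NF-κB activation was measured as luminescence of secreted reporter luciferase following overnight (16-18 h) stimulation with 10 ng/mL TNFα.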
Compound,Kd (human TNFR2 ECD protein),IC50 [1]
"CCCC[C@@H]1NC(=O)[C@@H]2C[C@@H](O)[C@@H](C2)NC(=O)[C@H]([C@@H](C)c2c[nH]c3c(OC)cccc23)NC(=O)CN(C)C(=O)[C@H](Cc2ccc(O)cc2)NC(=O)[C@H](Cc2ccc(C(=O)O)cc2)NC(=O)[C@](C)(CO)NC(=O)[C@H](Cc2c[nH]c3c(Cl)cccc23)NC(=O)[C@H](Cc2ccncc2)NC(=O)[C@H](CC(N)=O)NC(=O)[C@H](CCC(=O)O)N(C)C(=O)[C@H](Cc2c[nH]c3ccccc23)NC(=O)[C@@H]2CNCCN2C(=O)[C@H](Cc2ccncc2)NC1=O [SEQ ID NO. 34] (cyclo([4Pal][Trp(7-Cl)][αMeS][Phe(4-COOH)]Y[Sar][Trp(βS-Me,7-OMe)][X8][Nle][4Pal][Pip(4-aza)]W[NMeE]N))",> 1000 nM,0.7 nM
"CCCC[C@@H]1NC(=O)CSC[C@@H](C(N)=O)NC(=O)[C@H]([C@@H](C)c2c[nH]c3c(OC)cccc23)NC(=O)CN(C)C(=O)[C@H](Cc2ccc(O)cc2)NC(=O)[C@H](Cc2ccc(C(=O)O)cc2)NC(=O)[C@](C)(CO)NC(=O)[C@H](Cc2c[nH]c3c(Cl)cccc23)NC(=O)[C@H](Cc2ccncc2)NC(=O)[C@H](CC(N)=O)NC(=O)CN(CC(C)(C)CO)C(=O)[C@H](Cc2c[nH]c3ncccc23)NC(=O)[C@@H]2CCCCN2C(=O)[C@H](Cc2ccncc2)NC1=O [SEQ ID NO. 61] ({CH2CO}-[Nle][4Pal][Pip][Trp(7-aza)][X38]N[4Pal][Trp(7-Cl)][αMeS][Phe(4-COOH)]Y[Sar][Trp(βS-Me,7-OMe)]C-NH2; thioether N-14)",> 1000 nM,3.6 nM
"CCCC[C@@H]1NC(=O)CSC[C@@H](C(N)=O)NC(=O)[C@H]([C@@H](C)c2c[nH]c3c(OC)cccc23)NC(=O)CN(C)C(=O)[C@H](Cc2ccc(O)cc2)NC(=O)[C@H](Cc2ccc(C(=O)O)cc2)NC(=O)[C@](C)(CO)NC(=O)[C@H](Cc2c[nH]c3c(Cl)cccc23)NC(=O)[C@H](Cc2ccncc2)NC(=O)[C@H](CC(N)=O)NC(=O)CN(CCOC)C(=O)[C@H](Cc2c[nH]c3ncccc23)NC(=O)[C@@H]2CCCCN2C(=O)[C@H](Cc2ccncc2)NC1=O [SEQ ID NO. 62] ({CH2CO}-[Nle][4Pal][Pip][Trp(7-aza)][Nme]N[4Pal][Trp(7-Cl)][αMeS][Phe(4-COOH)]Y[Sar][Trp(βS-Me,7-OMe)]C-NH2; thioether N-14)",> 1000 nM,4.4 nM
